Measurements from ChEMBL document CHEMBL1201862, “PubChem BioAssay data set” (2004).
Calls of active or inactive are those of the source.

Legend:
HEK293 [1] = test: cells; assay type: functional, cell-based; conditions: Homo sapiens
HEK293 [2] = test: NOD2 signaling inhibitors in MDP-stimulated cells, cell-based, uHTS, luminescence (AID 2001); assay type: functional; conditions: Homo sapiens
[3] = target: T1, Nucleotide-binding oligomerization domain-containing protein 2 (Homo sapiens, UniProt Q9HC29); test: PubChem AID 2334; assay type: functional
HEK293 [4] = test: cells; assay type: functional, cell-based; conditions: Homo sapiens; remark: listed apart in the source
HEK293 [5] = test: NOD1 signaling inhibitors, primary screen, cell-based, luminescence, uHTS (AID 1578); assay type: functional; conditions: Homo sapiens
[6] = target: T2, Nucleotide-binding oligomerization domain-containing protein 1 (Homo sapiens, UniProt Q9Y239); test: NOD1 signaling inhibitors, SAR follow-up, revised (AID 2333); assay type: functional
T2 sequence (Q9Y239 whole entry): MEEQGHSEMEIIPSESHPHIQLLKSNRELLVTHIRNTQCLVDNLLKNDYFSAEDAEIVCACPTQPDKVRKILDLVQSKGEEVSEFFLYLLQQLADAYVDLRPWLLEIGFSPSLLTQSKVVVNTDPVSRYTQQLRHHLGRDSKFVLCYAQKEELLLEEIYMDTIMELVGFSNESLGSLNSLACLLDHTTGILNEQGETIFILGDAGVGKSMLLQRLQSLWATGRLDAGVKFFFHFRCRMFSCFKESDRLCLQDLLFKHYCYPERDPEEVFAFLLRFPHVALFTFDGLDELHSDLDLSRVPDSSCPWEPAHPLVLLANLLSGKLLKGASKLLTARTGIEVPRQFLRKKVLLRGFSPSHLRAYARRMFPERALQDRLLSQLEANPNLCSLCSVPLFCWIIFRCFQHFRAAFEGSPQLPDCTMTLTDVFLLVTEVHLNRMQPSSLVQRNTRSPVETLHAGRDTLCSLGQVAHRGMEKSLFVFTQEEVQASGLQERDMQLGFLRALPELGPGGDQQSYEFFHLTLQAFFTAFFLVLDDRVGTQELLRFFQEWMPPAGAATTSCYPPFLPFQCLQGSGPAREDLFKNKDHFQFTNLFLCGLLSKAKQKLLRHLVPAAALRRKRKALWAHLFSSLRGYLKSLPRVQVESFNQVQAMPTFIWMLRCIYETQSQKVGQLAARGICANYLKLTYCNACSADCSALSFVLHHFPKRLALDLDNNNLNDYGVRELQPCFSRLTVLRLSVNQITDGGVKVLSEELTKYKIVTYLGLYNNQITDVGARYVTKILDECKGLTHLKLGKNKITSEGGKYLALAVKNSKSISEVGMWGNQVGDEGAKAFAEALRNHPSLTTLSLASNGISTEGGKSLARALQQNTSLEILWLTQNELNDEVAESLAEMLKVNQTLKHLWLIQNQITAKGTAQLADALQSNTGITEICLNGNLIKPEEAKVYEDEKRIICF

[7] = target: T1, Nucleotide-binding oligomerization domain-containing protein 2; test: NOD2 signaling inhibitors, cell-based, luminescence, uHTS, HEK293 (AID 1566); assay type: functional
HEK293 [8] = test: cells; assay type: functional, cell-based; conditions: Homo sapiens; remark: listed apart in the source
Tumor necrosis factor = Tumor necrosis factor (Homo sapiens, UniProt P01375); test: TNFa-triggered NF-kB activation inhibitors, SAR follow-up, cell-based, revised (AID 2337); assay type: functional
HEK293 [9] = test: cells; conditions: Homo sapiens
cells = assay type: functional, cell-based; conditions: HEK-CNG
[10] = Fluorescence-based cell-based high throughput dose response assay for inhibitors of the interaction of nucleotide-binding oligomerization domain containing 2 (NOD2) and the receptor-interacting serine-threonine kinase 2 (RIPK2).; assay type: functional; conditions: Homo sapiens
Galanin receptor type 3 = Galanin receptor type 3 (Homo sapiens, UniProt O60755); test: Fluorescence-based cell-based primary high throughput dose response assay to identify antagonists of the Galanin Receptor 3 (GalR3).; assay type: functional
[11] = target: G-protein coupled receptor 55 (Homo sapiens, UniProt Q9Y2T6); test: GPR55 antagonists blocking LPI-driven arrestin recruitment, primary screen, imaging, U2OS, beta-arrestin-GFP, LPI agonist (AID 2013); assay type: functional;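 note: antagonist potency measured as reduced agonist-driven arrestin aggregation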
A-375 = test: A375 melanoma cell viability reduction, dose response, counter-screen for MITF modulator project, cherry-pick samples, set 2 (AID 540335); assay type: functional, cell-based; conditions: Homo sapiens
[12] = target: T3, High affinity choline transporter 1 (Homo sapiens, UniProt Q9GZV3); test: CHT inhibitors, dose response, cell-based, 5-point CRC, membrane potential dye (AID 504840); assay type: functional
T3 sequence (Q9GZV3 whole entry): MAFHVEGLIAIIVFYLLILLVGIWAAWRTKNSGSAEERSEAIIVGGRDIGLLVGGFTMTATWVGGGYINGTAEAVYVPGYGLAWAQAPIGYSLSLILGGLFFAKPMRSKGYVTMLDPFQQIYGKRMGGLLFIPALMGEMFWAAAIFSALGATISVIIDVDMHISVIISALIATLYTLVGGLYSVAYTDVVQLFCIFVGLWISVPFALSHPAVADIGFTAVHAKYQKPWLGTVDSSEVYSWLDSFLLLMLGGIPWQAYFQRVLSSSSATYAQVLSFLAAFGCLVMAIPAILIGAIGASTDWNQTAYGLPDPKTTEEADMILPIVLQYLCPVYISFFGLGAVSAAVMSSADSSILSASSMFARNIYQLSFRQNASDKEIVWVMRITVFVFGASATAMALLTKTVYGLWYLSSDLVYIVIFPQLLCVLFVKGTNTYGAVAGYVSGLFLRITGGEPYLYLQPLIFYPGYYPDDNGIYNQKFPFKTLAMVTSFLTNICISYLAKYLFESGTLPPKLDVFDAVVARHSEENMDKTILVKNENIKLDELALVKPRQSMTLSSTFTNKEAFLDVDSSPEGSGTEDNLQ

Paired box protein Pax-8 = Paired box protein Pax-8 (Homo sapiens, UniProt Q06710); test: inhibitors of PAX8-driven TPO luciferase reporter, dose response, RMG-I cells, cherry-pick (AID 687027); assay type: functional, cell-based;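 note: luciferase reporter driven by Pax8 target thyroperoxidase promoter measured by SteadyGlo luminescence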
[13] = Luminescence Cell-Based Dose Confirmation HTS to Identify Activators of 5'UTR Stem-Loop Driven Alpha-Synuclein mRNA Translation in H4 Neuroglioblastoma Cells. [Related pubchem assays: 1829 (Project Summary), 1814 (Primary HTS)]; assay type: functional
[14] = target: T4, Heat shock factor protein 1 (Mus musculus, UniProt P38532); test: inhibition of MG132-induced HSE-luciferase signal, confirmation, cell-based, NIH3T3, luminescence, dose retest (AID 2382); assay type: functional;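 note: NIH3T3 fibroblasts with HSF1-driven luciferase reporter stressed by proteasome inhibitor MG132; luminescence from HSF1-driven luciferase expression after 8 hours of MG132 stress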
T4 sequence (P38532 whole entry): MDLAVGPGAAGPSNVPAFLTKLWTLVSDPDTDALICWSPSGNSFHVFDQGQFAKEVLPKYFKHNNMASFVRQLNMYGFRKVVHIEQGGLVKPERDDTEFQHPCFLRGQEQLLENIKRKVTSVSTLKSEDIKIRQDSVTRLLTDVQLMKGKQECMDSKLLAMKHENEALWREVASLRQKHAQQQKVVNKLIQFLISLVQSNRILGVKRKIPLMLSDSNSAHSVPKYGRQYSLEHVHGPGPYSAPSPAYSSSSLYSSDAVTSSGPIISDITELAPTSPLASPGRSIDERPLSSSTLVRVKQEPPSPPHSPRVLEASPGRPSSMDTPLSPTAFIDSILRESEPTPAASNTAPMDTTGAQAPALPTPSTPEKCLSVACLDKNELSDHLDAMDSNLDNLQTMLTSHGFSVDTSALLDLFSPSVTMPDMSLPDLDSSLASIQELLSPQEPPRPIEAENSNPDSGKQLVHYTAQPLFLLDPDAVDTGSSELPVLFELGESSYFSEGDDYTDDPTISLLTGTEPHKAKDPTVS

H4 = test: Luminescence Cell-Based Dose Response HTS to Identify Activators of 5'UTR Stem-Loop Driven Prion Protein mRNA Translation in H4 Neuroglioblastoma Cells. [Related pubchem assays: 1829 (Project Summary), 1814 (Primary HTS)]; assay type: functional; conditions: Homo sapiens
[15] = target: T5, Microphthalmia-associated transcription factor (Homo sapiens, UniProt O75030); test: TRPM1 promoter luciferase signal decrease, dose response, MITF inhibitor project, cell-based, SK-MEL-5, cherry-picked, set 3 (AID 493073); assay type: functional
T5 sequence (O75030 whole entry): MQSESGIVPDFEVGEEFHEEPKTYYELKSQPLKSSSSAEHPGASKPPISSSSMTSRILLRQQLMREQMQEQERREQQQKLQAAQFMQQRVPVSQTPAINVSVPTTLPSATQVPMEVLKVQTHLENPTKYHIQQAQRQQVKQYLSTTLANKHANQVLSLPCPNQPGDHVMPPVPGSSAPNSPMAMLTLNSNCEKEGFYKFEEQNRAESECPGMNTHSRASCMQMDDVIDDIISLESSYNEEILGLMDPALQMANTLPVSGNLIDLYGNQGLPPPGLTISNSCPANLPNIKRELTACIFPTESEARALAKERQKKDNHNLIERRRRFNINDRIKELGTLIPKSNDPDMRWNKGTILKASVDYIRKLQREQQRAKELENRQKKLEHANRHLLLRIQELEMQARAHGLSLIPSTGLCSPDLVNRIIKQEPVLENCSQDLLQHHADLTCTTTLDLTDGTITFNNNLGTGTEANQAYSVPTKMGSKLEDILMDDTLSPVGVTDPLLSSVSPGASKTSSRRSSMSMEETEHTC

[16] = Luminescence Cell-Based Dose Response HTS to Identify Activators of Luciferase Translation or Activity in H4 […] Cells. [Related pubchem assays: 1829 (Project Summary), 1814 (Primary HTS)]; assay type: functional
Troponin, cardiac muscle = Troponin, cardiac muscle (Homo sapiens, UniProt P19429+P45379+P63316); test: Fluorescence-based biochemical high throughput dose response assay for activators of the calcium sensitivity of cardiac Regulated Thin Filaments (RTF). [Related pubchem assays (depositor defined):AID493008, AID493018, AID504382, AID504383]; assay type: protein-complex assay
[17] = target: DNA damage-inducible transcript 3 protein (Mus musculus, UniProt P35639); assay type: functional, Cricetulus griseus
Coagulation factor XII = target: T6, Coagulation factor XII (Homo sapiens, UniProt P00748); assay type: functional;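 note: activated factor XIIa alpha cleaving a fluorogenic AMC peptide substrate; inhibitor potency from loss of enzyme activity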
T6 sequence (P00748 whole entry): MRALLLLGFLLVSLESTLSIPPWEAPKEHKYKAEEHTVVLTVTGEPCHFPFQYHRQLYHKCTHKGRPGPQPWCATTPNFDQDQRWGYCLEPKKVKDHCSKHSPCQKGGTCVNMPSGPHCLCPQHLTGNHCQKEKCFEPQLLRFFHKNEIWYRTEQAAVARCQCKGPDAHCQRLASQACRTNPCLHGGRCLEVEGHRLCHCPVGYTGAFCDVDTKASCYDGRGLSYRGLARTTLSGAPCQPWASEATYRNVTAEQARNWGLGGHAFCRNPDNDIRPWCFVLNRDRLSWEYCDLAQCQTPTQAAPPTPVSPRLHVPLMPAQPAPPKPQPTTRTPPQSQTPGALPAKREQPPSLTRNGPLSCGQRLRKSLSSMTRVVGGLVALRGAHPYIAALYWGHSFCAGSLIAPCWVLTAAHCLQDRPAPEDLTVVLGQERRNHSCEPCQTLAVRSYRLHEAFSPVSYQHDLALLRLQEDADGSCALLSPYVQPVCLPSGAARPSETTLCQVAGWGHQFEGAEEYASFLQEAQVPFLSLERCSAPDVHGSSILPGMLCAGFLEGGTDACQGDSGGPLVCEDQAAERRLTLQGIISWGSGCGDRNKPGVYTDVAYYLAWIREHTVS

Cc1c(C(=O)OCC(=O)c2c(N)n(CC(C)C)c(=O)n(C)c2=O)oc2ccccc12
IC50 (HEK293 [1]): > 20 µM (inactive) | IC50 (HEK293 [2]): 19 µM (inactive) | IC50 [3]: 14.9 µM (active) | IC50 (HEK293 [4]): > 20 µM (inactive) | EC50 (HEK293 [5]): 15.7 µM (active) | IC50 [6]: 17.4 µM (active) | EC50 [7]: > 20 µM (inactive) | IC50 (HEK293 [8]): > 20 µM (inactive) | IC50 (Tumor necrosis factor): > 20 µM (inactive) | IC50 (HEK293 [9]): > 20 µM (inactive)

CCCCn1c(=O)[nH]c(=O)c2c1nc(Cn1ncc(Cl)c(Cl)c1=O)n2CCC
EC50 (cells): > 29.9 µM (inactive) | IC50 [10]: 2.15 µM (active) | IC50 (Galanin receptor type 3): > 3.32 µM (active) | IC50 [11]: 6.1 µM (active) | AC50 (A-375): 28.9 µM (active) | IC50 [12]: 12.6 µM (active) | AC50 (Paired box protein Pax-8): 6.68 µM (active) | EC50 [13]: > 120 µM (not active) | EC50 [14]: 2.89 µM (active) | EC50 (H4): > 120 µM (not active) | AC50 [15]: 8.12 µM (active) | EC50 [16]: > 120 µM (not active)

COCCn1c(=O)c2ccccc2c2ccccc2c1=O
EC50 (Troponin, cardiac muscle): > 71.5 µM (inactive)

CCOc1ccc2nc(NC(=O)CSc3nc4c(c(=O)n(C)c(=O)n4C)n3C(C)C)sc2c1
Absolute IC50 (CHOP) [17]: 10 µM

CC(C)Oc1ccc(CNC(=S)N/N=C/c2ccc([N+](=O)[O-])cc2)cc1
IC50 (Coagulation factor XII): > 50 µM (inactive) | EC50 [14]: > 195 µM (not active) | Absolute IC50 (CHOP) [17]: 10 µM
